Columns and labels:
rabbit aorta rings = test: Vasorelaxant action in vitro (phenylephrine-contracted rabbit aorta rings); conditions: Oryctolagus cuniculus; concentration reducing phenylephrine-induced contraction of rabbit aorta rings by 50%
Experimental: B-1. Vasorelaxant Action In Vitro
Rabbits are stunned by a blow to the neck and exsanguinated. The aorta is removed, freed from adhering tissue and divided into rings of a width of 1.5 mm. The rings are placed individually under an initial tension in 5 ml organ baths with Krebs-Henseleit solution which is at 37° C., is gassed with carbogen and has the following composition (in each case mM): sodium chloride 119; potassium chloride: 4.8; calcium chloride dihydrate: 1; magnesium sulfate heptahydrate: 1.4; potassium dihydrogenphosphate: 1.2; sodium bicarbonate: 25; glucose: 10. The contractile force is determined with Statham UC2 cells, amplified and digitalized using A/D transducers (DAS 1802 HC, Keithley Instruments Munich), and recorded in parallel on linear recorders. To obtain a contraction, phenylephrine is added to the bath cumulatively in increasing concentration. After several control cycles, the substance to be investigated is added in each further run in increasing dosage in each case, and the height of the contraction achieved is compared with the height of the contraction reached in the last preceding run. This is used to calculate the concentration needed to reduce the magnitude of the control value by 50% (IC50 value). The standard administration volume is 5 μl; the DMSO content in the bath solution corresponds to 0.1%.

[1] = tested on: recombinant guanylate cyclase reporter cell line; test: Effect on a recombinant guanylate cyclase reporter cell line; type: cell-based; conditions: MEC=minimum effective concentration
Experimental: B-2. Effect on a Recombinant Guanylate Cyclase Reporter Cell Line
The cellular activity of the compounds according to the invention is determined using a recombinant guanylate cyclase reporter cell line, as described in F. Wunder et al., Anal. Biochem. 339, 104-112 (2005).

[2] = Pharmacokinetic parameters following intravenous administration in rats; type: in vivo, male Wistar rats; conditions: intravenous administration of 0.3 mg/kg
Experimental: B-4. Determination of Pharmacokinetic Parameters Following Intravenous and Oral Administration:
The pharmacokinetic parameters of the substance are determined in male CD-1 mice, male Wistar rats and female beagles. The administration volume is 1 ml/kg for mice, 5 ml/kg for rats and 0.5 ml/kg for dogs. Intravenous administration is via a formulation of species-specific plasma/DMSO (99/1) in the case of mice and rats and via water/PEG400/ethanol (50/40/10) in the case of dogs. The taking of blood from rats is simplified by inserting a silicone catheter into the right Vena jugularis externa prior to substance administration. The surgical intervention takes place one day prior to the experiment with isofluran anesthesia and administration of an analgetic (carprofen 5 mg/kg s.c.). Substance administration is as i.v. bolus in the case of mice and via a 15-minute infusion in the case of rats and dogs. Removal of blood is after 0, 0.033, 0.083, 0.17, 0.5, 1, 2, 3, 4, 6, 7 and 24 hours in the case of mice and after 0, 0.083, 0.25, 0.28, 0.33, 0.42, 0.75, 1, 2, 3, 4, 6, 7 and 24 hours in the case of dogs and rats. […]
An internal standard (ZK 228859) is added to the unknown samples, calibration samples and QCs, and the protein is precipitated using excess acetonitrile. […] The substances are quantified by peak heights or areas using extracted ion chromatograms of specific MRM experiments.
The plasma concentration/time plots determined are used to calculate the pharmacokinetic parameters such as AUC, Cmax, t1/2 (half life) and CL (clearance) employing the validated pharmacokinetic calculation program KinEx (Vers. 2.5 and 3).
Since the substance quantification is performed in plasma, it is necessary to determine the blood/plasma distribution of the substance in order to be able to adjust the pharmacokinetic parameters correspondingly. […] After centrifugation at 1000 g, the plasma concentration is measured (see above) and determined by calculating the quotient of the cb/cp values.
Following intravenous administration of 0.3 mg/kg of example 1 in rats, the following values were recorded: […]

| SMILES | IC50 (rabbit aorta rings) [nM] | MEC [1] [µM] | AUCnorm [2] [kg·h/L] | clearance ([2]; male, Wistar, rat, blood, read-out: CL blood (converted)) [mL/min/kg] | half-life ([2]; male, Wistar, rat, plasma) [h] |
| --- | --- | --- | --- | --- | --- |
| COC(=O)Nc1c(N)nc(-n2nc(Cc3ccccc3F)c3ncc(F)cc32)nc1N [Example 1, Methyl {4,6-diamino-2-[6-fluoro-3-(2-fluorobenzyl)-1H-pyrazolo[4,3-b]pyridin-1-yl]pyrimidin-5-yl}carbamate] | 1380 | 0.3 | 4.62 | 5.5 | 1.38 |
| CCOC(=O)Nc1c(N)nc(-n2nc(Cc3ccccc3F)c3ncc(F)cc32)nc1N [Example 2, Ethyl {4,6-diamino-2-[6-fluoro-3-(2-fluorobenzyl)-1H-pyrazolo[4,3-b]pyridin-1-yl]pyrimidin-5-yl}carbamate] | 763 | 0.3 |  |  |  |
| COC(=O)N(C)c1c(N)nc(-n2nc(Cc3ccccc3F)c3ncc(F)cc32)nc1N [Example 7, Methyl {4,6-diamino-2-[6-fluoro-3-(2-fluorobenzyl)-1H-pyrazolo[4,3-b]pyridin-1-yl]pyrimidin-5-yl}methylcarbamate] | 194 | 0.1 |  |  |  |
| CCOC(=O)N(C)c1c(N)nc(-n2nc(Cc3ccccc3F)c3ncc(F)cc32)nc1N [Example 8, Ethyl {4,6-diamino-2-[6-fluoro-3-(2-fluorobenzyl)-1H-pyrazolo[4,3-b]pyridin-1-yl]pyrimidin-5-yl}methylcarbamate] | 286 | 0.1 |  |  |  |
| COC(=O)N(CC(F)(F)F)c1c(N)nc(-n2nc(Cc3ccccc3F)c3ncc(F)cc32)nc1N [Example 13, Methyl {4,6-diamino-2-[6-fluoro-3-(2-fluorobenzyl)-1H-pyrazolo[4,3-b]pyridin-1-yl]pyrimidin-5-yl}(2,2,2-trifluoroethyl)carbamate] | 178 | 0.1 |  |  |  |

From patent US9309239B2, “Substituted 6-fluoro-1H-pyrazolo[4,3-b]pyridines and use thereof” (BAYER INTELLECTUAL PROPERTY GMBH, priority 2010, dated 2016)
